The record followed here is patent US10285982B2, “3-(1H-pyrrolo[2,3-B]pyridin-2-yl)-1H-pyrazolo[3,4-C]pyridines and therapeutic uses thereof” (Samumed, LLC, priority 2015, dated 2019).

Assay [1] has as its system primary human mesenchymal stem cells (hMSCs). In words: Chondrogenesis induction in hMSCs (nodule count). Conditions: 144 h, hMSC chondrogenesis, 6 days; for Emax: relative to TGF-β3 (10 ng/mL) positive control, read-out: Max. Activity as % TGF-β3 activity; for EC50: concentration required to induce 50% of TGF-β3 level, read-out: Conc. (nM) of 50% TGF-β3 activity. Format: cell-based. The procedure: Representative compounds were screened using primary human mesenchymal stem cells (hMSCs) to determine their ability to induce chondrogenesis (process by which cartilage is developed).
Primary human mesenchymal stem cells (hMSCs) were purchased from Lonza (Walkersville, Md.) and expanded in Mesenchymal Stem Cell Growth Media (Lonza). Cells between passage 3 and 6 were used for the experiments.
Each compound was dissolved in DMSO as a 10 mM stock and used to prepare compound source plates. Serial dilution (1:3, 6-point dose-response curves from 2700 nM to 10 nM) and compound transfer was performed using the ECHO 550 (Labcyte, Sunnyvale, Calif.) into 96-well clear bottom assay plates (Greiner Bio-One) with appropriate DMSO backfill for a final DMSO concentration of 0.03%. hMSCs were plated at 20,000 cells/well in 250 μL/well Incomplete Chondrogenic Induction Medium (Lonza; DMEM, dexamethasone, ascorbate, insulin-transferrin-selenium [ITS supplement], gentamycin-amphotericin [GA-1000], sodium pyruvate, proline and L-glutamine). TGF-β3 (10 ng/mL) was used as a positive control for differentiation while negative control wells were treated with 75 nL DMSO for normalization and calculating EC50 values. Cells were incubated at 37° C. and 5% CO2 for 6 days. To image chondrogenic nodules, the cells were fixed using 4% formaldehyde (Electron Microscopy Sciences), and stained with 2 μg/mL Rhodamine B (Sigma-Aldrich) and 20 μM Nile Red (Sigma-Aldrich) [Johnson K., et. al, A Stem Cell-Based Approach to Cartilage Repair, Science, (2012), 336(6082), 717-721]. The nodules imaged (4 images per well at 4× magnification) by excitation at 531 nm and emission at 625 nm and quantified using the CellInsight CX5 (Thermo Scientific). Number of nodules in each well was normalized to the average of 3 DMSO treated wells on the same plate using Excel (Microsoft Inc.). The normalized averages (fold change over DMSO) of 3 replicate wells for each compound concentration were calculated. Due to solubility limitations of some of the compounds, curve fitting was incomplete leading to inaccurate EC50 determinations.
Using TGF-β3 as a positive control, the concentration of representative compounds required to induce 50% levels of chondrogenesis is reported. In addition, the maximum activity of each compound and the respective dose that each compound reached maximum chondrogenesis activity is reported.

Assay [2] deals with primary human fibroblasts derived from IPF patients (LL29 cells) treated with TGF-β1. Put plainly: Inhibition of fibrotic process, αSMA staining in TGF-β1 treated LL29 fibroblasts. Format: cell-based. To be noted: Fibroblast; for EC50: 96 h, % αSMA positive LL29 cells, TGF-β1 20 ng/mL, 4 days; for inhibition at 10 µM: given where EC50 >10 μM, αSMA, LL29 cells, TGF-β1, read-out: percent inhibition at 10 μM. In outline:
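Compound dilutions from 10 μM down to […] are dispensed, LL29 cells added in F12 with 1% FBS, and TGF-β1 (20 ng/mL) follows after 1 h. After 4 days, live-cell αSMA positivity is measured by immunofluorescence and normalized to TGF-β1-treated wells to derive EC50.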

Bounds are passed on as bounds.

As to `O=C(Nc1cncc(-c2cc3c(-c4cc5cccnc5[nH]4)n[nH]c3cn2)c1)C1CC1` [Compound 272, N-(5-(3-(1H-Pyrrolo[2,3-b]pyridin-2-yl)-1H-pyrazolo[3,4-c]pyridin-5-yl)pyridin-3-yl)cyclopropanecarboxamide], the Emax in assay [1] was determined as 18%. Also, in assay [2], the EC50 worked out at 9.98 µM.

Consider `FC1(F)CCN(Cc2cncc(-c3cc4c(-c5cc6cccnc6[nH]5)n[nH]c4cn3)c2)C1` [Compound 278, 5-(5-((3,3-Difluoropyrrolidin-1-yl)methyl)pyridin-3-yl)-3-(1H-pyrrolo[2,3-b]pyridin-2-yl)-1H-pyrazolo[3,4-c]pyridine], for which the Emax in assay [1] amounted to 45%. In assay [2], the EC50 is 0.111 µM.

With `Fc1cccc(-c2ccnc3[nH]c(-c4n[nH]c5cnc(-c6cncnc6)cc45)cc23)c1` [Compound 27, 3-(4-(3-Fluorophenyl)-1H-pyrrolo[2,3-b]pyridin-2-yl)-5-(pyrimidin-5-yl)-1H-pyrazolo[3,4-c]pyridine], the Emax in assay [1] came to 41%. Also, the EC50 in assay [2] turned out to be 2.82 µM.

`CN1CCN(c2ccnc3[nH]c(-c4n[nH]c5cnc(-c6cn[nH]c6)cc45)cc23)CC1` [Compound 635, 3-(4-(4-Methylpiperazin-1-yl)-1H-pyrrolo[2,3-b]pyridin-2-yl)-5-(1H-pyrazol-4-yl)-1H-pyrazolo[3,4-c]pyridine]: in assay [1], the EC50 worked out at 10 nM and the Emax was determined as 63%. Also, in assay [2], the EC50 was more than 10 µM and the inhibition at 10 µM was determined as 44.9%.

Consider `Fc1cccc(-c2ccnc3[nH]c(-c4n[nH]c5cnc(-c6cncc(CN7CCCC7)c6)cc45)cc23)c1` [Compound 14, 3-(4-(3-Fluorophenyl)-1H-pyrrolo[2,3-b]pyridin-2-yl)-5-(5-(pyrrolidin-1-ylmethyl)pyridin-3-yl)-1H-pyrazolo[3,4-c]pyridine], for which, in assay [1], the EC50 was found to be 100 nM and the Emax was determined as 68%. In assay [2], this molecule returned an EC50 of 3.53 µM.

As for `O=C(Nc1cncc(-c2cc3c(-c4cc5c(-c6cccc(F)c6)ccnc5[nH]4)n[nH]c3cn2)c1)C1CC1` [Compound 20, N-(5-(3-(4-(3-Fluorophenyl)-1H-pyrrolo[2,3-b]pyridin-2-yl)-1H-pyrazolo [3,4-c]pyridin-5-yl)pyridin-3-yl)cyclopropanecarboxamide], in assay [1], the Emax came out at 22%. The EC50 in assay [2] is 0.019 µM.

`CC(C)(C)C(=O)Nc1cncc(-c2cc3c(-c4cc5c(-c6cccc(F)c6)ccnc5[nH]4)n[nH]c3cn2)c1` [Compound 8, N-(5-(3-(4-(3-Fluorophenyl)-1H-pyrrolo[2,3-b]pyridin-2-yl)-1H-pyrazolo [3,4-c]pyridin-5-yl)pyridin-3-yl)pivalamide]: in assay [1], the EC50 worked out at 10 nM and the Emax was found to be 114%. Also, in assay [2], the EC50 came out at 0.033 µM.

`O=C(Nc1cncc(-c2cc3c(-c4cc5c(-c6cccnc6)ccnc5[nH]4)n[nH]c3cn2)c1)c1ccccc1` [Compound 95, N-(5-(3-(4-(Pyridin-3-yl)-1H-pyrrolo[2,3-b]pyridin-2-yl)-1H-pyrazolo[3,4-c]pyridin-5-yl)pyridin-3-yl)benzamide]: in assay [1], the EC50 was found to be 10 nM and the Emax came out at 64%. Further, in assay [2], the EC50 is more than 10 µM and the inhibition at 10 µM worked out at 0.8%.

With `c1cncc(-c2ccnc3[nH]c(-c4n[nH]c5cnc(-c6cncnc6)cc45)cc23)c1` [Compound 111, 3-(4-(Pyridin-3-yl)-1H-pyrrolo[2,3-b]pyridin-2-yl)-5-(pyrimidin-5-yl)-1H-pyrazolo[3,4-c]pyridine], the Emax in assay [1] came to 50%. Also, in assay [2], the EC50 was more than 10 µM and the inhibition at 10 µM amounted to 1.4%.

Regarding `CN1CCN(c2ccnc3[nH]c(-c4n[nH]c5cnc(-c6cncc(CNCC7CCCC7)c6)cc45)cc23)CC1` [Compound 249, 1-Cyclopentyl-N-((5-(3-(4-(4-methylpiperazin-1-yl)-1H-pyrrolo[2,3-b]pyridin-2-yl)-1H-pyrazolo[3,4-c]pyridin-5-yl)pyridin-3-yl)methyl)methanamine], the values for the EC50 in assay [1] and in assay [2] were 300 nM and 6.92 µM, respectively. In assay [1], the Emax worked out at 150%.

Consider `c1cncc(-c2cc3c(-c4cc5cccnc5[nH]4)n[nH]c3cn2)c1` [Compound 256, 5-(Pyridin-3-yl)-3-(1H-pyrrolo[2,3-b]pyridin-2-yl)-1H-pyrazolo[3,4-c]pyridine], for which, in assay [1], the Emax was 28%. Further, the EC50 in assay [2] is 1.7 µM.
